# Laboratory results from patent US6995123B2, “Use of multifunctional surface active agents to clean contact lenses” (Alcon, Inc., priority 2002, dated 2006).
# System: protein deposits (i.e., lysozyme) from Group IV lenses
# Assay: In vitro cleaning efficacy: removal of lysozyme deposits from soiled contact lenses
# Description: The formulations shown in Table 1 below were tested to evaluate the ability of the multifunctional surfactants described above to remove protein deposits (i.e., lysozyme) from Group IV lenses. The cleaning performance was compared to conventional cleaning agents. The test procedures are described below, and the cleaning results are set forth at the bottom of Table 1.
# The materials and methods utilized in the evaluation were as follows: 1.311 g of monobasic sodium phosphate (monohydrate), 5.74 g of dibasic sodium phosphate (anhydrous), and 9.0 g of sodium chloride were dissolved in deionized water and the volume was brought to 1000 mL with deionized water after completely dissolving the solutes and adjusting pH (if needed). The final concentrations of sodium phosphate and sodium chloride were 0.05 M and 0.9 w/v %, respectively. The final pH was 7.4.
# A 1.0-mg/mL lysozyme solution was prepared by dissolving 500 mg of lysozyme in 500-mL of phosphate buffered saline.
# A lens extraction solution was prepared by mixing 1.0 mL of trifluoroacetic acid with 500-mL of acetonitrile and 500 mL of deionized water. The pH of the solution ranged from 1.5 to 2.0.
# Each lens was immersed with 5 mL of lysozyme solution in a Wheaton glass sample vial. The vial was closed with a plastic snap cap and incubated in a constant temperature water bath at 37° C. for 24 hours. After incubation, the deposited lens was removed from the vial and rinsed by dipping into three consecutive beakers containing 50 mL of deionized water to remove any excess of the deposition solution. The lens was then blotted gently with a laboratory towel (Kaydry EX-L, from Kimberly-Clark). These lenses were used as a soiled lenses for the evaluation of cleaning efficacy of the test solutions.
# The lens was immersed in a Wheaton glass sample vial containing 5 mL of UNISOL® 4 saline solution. The vial was closed with a plastic snap cap held secure with a metal clasp to prevent the cap from popping off during the thermal treatment. […]
# Each soiled lens was soaked and shaken with 5 mL of the test solution in a scintillation vial at room temperature for 12 hours. […] The clean lenses were then subjected to the extraction procedure described below, and the amount of lysozyme present in the soaking solutions was measured with a fluorescence spectrophotometer. […]
# A quantitative determination of the amount of lysozyme in the lens extract solution and lens soaking solutions was carried out by a fluorescence spectrophotometer interfaced with an autosampler and a computer. The fluorescence intensity of a 2 mL aliquot from each sample solution was measured by setting the excitation/emission wavelength at 280 nm/346 nm with excitation/emission slits of 2.5 nm/10 nm, respectively, and the sensitivity of the photomultiplier was set at 950 volts. […]
smiles,measurement,setting,value
"CCCCCCCCCCCC(=O)N(CCN(CC(=O)[O-])CC(=O)[O-])CC(=O)[O-].[Na+].[Na+].[Na+] [LED3A, lauroyl ethylene diaminetriacetate]",cleaning efficacy,LED3A 0.03% in borate buffered vehicle containing 0.6% sodium citrate,29.5%
same,cleaning efficacy,LED3A 0.075% in borate buffered vehicle containing 0.6% sodium citrate,47.5%
same,cleaning efficacy,LED3A 0.1% in borate buffered vehicle containing 0.6% sodium citrate,56.0%
same,cleaning efficacy,LED3A 0.2% in borate buffered vehicle containing 0.6% sodium citrate,60.2%
